Measurements taken from patent publication US4491675A, “Hydroformylation process using triarylphosphine and bisphosphine monooxide ligands” (Union Carbide Corporation, priority 1981, dated 1985).

What was measured:
[1] = Continuous propylene hydroformylation with stepwise CO partial pressure increase, catalyst stability (Examples 14 to 18, Table II); details: for Aldehyde Product Reaction Rate, day 12, corrected reaction rate (in parenthesis): day 12 at 130° C., corrected with mathematical rate model for standard rhodium-triphenylphosphine catalyst; for % Activity Decline: decline in catalyst activity from Day 6 through Day 12 at 130° C.; for Aldehyde Product Reaction Rate, day 6: observed, day 6 at 130° C., total gas about 165 psig, Rh 200 or 300 ppm
Description: During days 9 to 13 the carbon monoxide partial pressure was increased stepwise from about 10 to 25 psia and returned to about 10 psia for day 14.

[2] = Continuous propylene hydroformylation, long term catalyst stability (Examples 1 to 13, Table I); details: for Aldehyde Product Reaction Rate, day 4, corrected reaction rate (in parenthesis) / Aldehyde Product Reaction Rate, day 4: day 4 at 130° C.; for Aldehyde Product Reaction Rate, day 4, corrected reaction rate (in parenthesis): corrected with mathematical rate model for standard rhodium-triphenylphosphine catalyst; for % Activity Decline: decline in catalyst activity from Day 1 through Day 4 at 130° C.; for Aldehyde Product Reaction Rate, day 1 / Aldehyde Product Reaction Rate, day 4: observed, total gas about 165 psig, Rh 100 or 200 ppm; for Aldehyde Product Reaction Rate, day 1: day 1 at 130° C.; for thermal catalyst stability: 130° C., in words, relative comparison of ligand systems of Table I
Description: A series of long term catalyst stability experiments were conducted in a glass reactor operating in a continuous propylene hydroformylation mode. The reactor consisted of a three ounce pressure bottle submersed in an oil bath with a glass front for viewing. In each experiment about 20 ml. of a freshly prepared rhodium catalytic precursor solution was charged to the reactor with a syringe after purging the system with nitrogen. Each precursor solution contained from 100 to 200 ppm rhodium calculated as free metal (as noted in Table I below) introduced as rhodium dicarbonyl acetylacetonate, a phosphorus ligand or mixture of phosphorus ligands and a solvent.
After closing the reactor, the system was again purged with nitrogen and the oil bath was heated to furnish the desired hydroformylation reaction temperature. […] The flows of the feed gases (carbon monoxide, hydrogen and propylene) were controlled individually with mass flow meters and the feed gases dispersed into the precursor solution via fritted glass spargers. The unreacted portion of the feed gases stripped out the product aldehydes. […] The product aldehydes for each experiment were analyzed over the first day of continuous operation at 130° C. and over the fourth day of continuous operation at 130° C. and the average reaction rates for each experiment in terms of gram moles per liter per hour of total product aldehydes for the first and fourth days of continuous operation at the average measured partial pressures of hydrogen, carbon monoxide and propylene for said days are given in Table I below.

| Compound | Aldehyde Product Reaction Rate, day 12, corrected reaction rate (in parenthesis) [1] | % Activity Decline [1] [%] | Aldehyde Product Reaction Rate, day 6 [1] [gmoles/L hr] | Aldehyde Product Reaction Rate, day 4, corrected reaction rate (in parenthesis) [2] | % Activity Decline [2] [%] | Aldehyde Product Reaction Rate, day 1 [2] [g·mol/L/h] | Aldehyde Product Reaction Rate, day 4 [2] [g·mol/L/h] | thermal catalyst stability [2] |
| --- | --- | --- | --- | --- | --- | --- | --- | --- |
| c1ccc(P(c2ccccc2)c2ccccc2)cc1 [Example 14, (C6 H5)3 P] | .76 gmoles/L hr | 32 | 1.12 | – | – | – | – | – |
| (CH3 OC6 H4)3 P [Example 5] | – | – | – | 1.36 g·mol/L/h | 13 | 1.57 | 1.68 | – |
| (CH3 O-C6 H4)3 P [Example 16] | 1.14 gmoles/L hr | 14 | 1.33 | – | – | – | – | – |
| (ClC6 H4)3 P [Example 8] | – | – | – | .32 g·mol/L/h | 46 | 0.59 | 0.49 | – |
| c1ccc(P(c2ccccc2)c2ccccc2)cc1 [Example 1, (C6 H5)3 P] | – | – | – | 1.00 g·mol/L/h | 42 | 1.74 | 1.12 | inferior thermal stability |
| CH3 -C6 H4)3 P [Example 15] | 1.24 gmoles/L hr | 17 | 1.50 | – | – | – | – | – |
| O=P(CCP(c1ccccc1)c1ccccc1)(c1ccccc1)c1ccccc1 [Example 9, (C6 H5)2 P(CH2)2 P(O)(C6 H5)2] | – | – | – | 0.63 g·mol/L/h | 40 | 1.06 | 0.87 | inferior thermal stability |
| (CH3 C6 H4)3 P [Example 3] | – | – | – | 1.02 g·mol/L/h | 25 | 1.36 | 1.49 | – |
